The text below walks through data of paper PMC11313180 (International Journal of Molecular Sciences, 2024).

The structures appear in SMILES notation. Read-outs that look alike come from different tables or passages of the source.

For one assay, the system named is MDA-MB-231. Kind of assay: MTT cell viability assay, MDA-MB-231. The format is cell-based, human. How it is done:
MTT assays were performed as previously described. Cell numbers plated differed depending on each incubation time: MDA-MB-231 5000 c/w, MCF-7 5000 c/w (72 h) and 3000 c/w (120 h), T-47D 10,000 c/w (72 h) and 5000 c/w /120 h). After incubation time, medium was replaced by MTT (solution of 5 mg/mL 3-(4,5-dimethylthiazol-2-yl)-2,5-diphenyl-tetrazoliumbromidin in phosphate buffered saline, Serva, Heidelberg, Germany). After 10 min (MCF-7), 20 min (MDA-MB-231), and 30 min (T47D) and dissolving in DMSO (VWR, Langenfeld, Germany), absorbance was measured at 544 nm and 690 nm in a FLUOstar microplate reader (BMG LabTech, Offenburg, Germany).

Assay [1] addresses T1, HDAC8 (Homo sapiens, UniProt Q9BY41).
T1 sequence (Q9BY41 1-377): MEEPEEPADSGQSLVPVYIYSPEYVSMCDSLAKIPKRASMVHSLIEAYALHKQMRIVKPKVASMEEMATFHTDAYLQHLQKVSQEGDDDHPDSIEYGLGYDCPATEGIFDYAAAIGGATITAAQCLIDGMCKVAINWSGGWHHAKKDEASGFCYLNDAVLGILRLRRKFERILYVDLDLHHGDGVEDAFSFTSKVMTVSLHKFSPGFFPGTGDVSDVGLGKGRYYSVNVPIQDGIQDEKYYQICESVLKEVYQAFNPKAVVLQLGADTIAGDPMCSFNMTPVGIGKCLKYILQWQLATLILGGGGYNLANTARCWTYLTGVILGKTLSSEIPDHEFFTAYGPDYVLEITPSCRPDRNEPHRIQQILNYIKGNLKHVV
Kind of assay: Enzyme HDAC inhibition assay, HDAC8. As to conditions: read-out: IC50 HDAC 8; IC50 ± SEM; three experiments in duplicates.
Excerpt: (§1) All human recombinant enzymes were purchased from Reaction Biology Corp. (Malvern, PA, USA).

In assay [2] the test system is HDAC8. Particulars: obtained by fitting Lechner et al. source data to a sigmoidal concentration–effect model; ref [21]; read-out: IC50 HDAC 8, Lechner et al.; cited from earlier work.
The subject of a further assay is HDAC2. As to conditions: obtained by fitting Lechner et al. source data to a sigmoidal concentration–effect model; ref [21]; read-out: IC50 HDAC 2, Lechner et al.; cited from earlier work.
The test system of assay [3] is class I/IIb HDAC activity in T47D cells. Kind of assay: cells. As to conditions: T47D cells, 48 h, substrate Boc-Lys-AC-AMC; IC50 ± SEM, one experiment in triplicates; read-out: IC50 Cellular HDAC Assay. The format is cell-based, human. Here is the method:
The cellular HDAC assay was performed based on an assay published by Heltweg and Jung and Ciossek et al.. Breast cancer cell line T-47D (12,000 c/w) was seeded in 96-well tissue culture plates (Corning, Kaiserslautern, Germany) in a total volume of 90 µL of culture medium. After 24 h, cells were incubated 48 h with increasing concentrations of a-lipoic acid. The reaction was started by adding 10 µL of 3 mM Boc-Lys(Ac)-AMC (Bachem, Bubensdorf, Switzerland) and again incubated for 3 h under cell culture conditions. […]

Another assay deals with T2, HDAC4 (Homo sapiens, UniProt P56524).
T2 construct: purchased Reaction Biology Corp. KDA-21-279
Kind of assay: Enzyme HDAC inhibition assay, HDAC4. It is filed as biochemical. As to conditions: IC50 ± SEM; three experiments in duplicates; read-out: IC50 HDAC 4.

Another assay deals with T3, HDAC6 (Homo sapiens, UniProt Q9UBN7).
T3 sequence (Q9UBN7 1-1215): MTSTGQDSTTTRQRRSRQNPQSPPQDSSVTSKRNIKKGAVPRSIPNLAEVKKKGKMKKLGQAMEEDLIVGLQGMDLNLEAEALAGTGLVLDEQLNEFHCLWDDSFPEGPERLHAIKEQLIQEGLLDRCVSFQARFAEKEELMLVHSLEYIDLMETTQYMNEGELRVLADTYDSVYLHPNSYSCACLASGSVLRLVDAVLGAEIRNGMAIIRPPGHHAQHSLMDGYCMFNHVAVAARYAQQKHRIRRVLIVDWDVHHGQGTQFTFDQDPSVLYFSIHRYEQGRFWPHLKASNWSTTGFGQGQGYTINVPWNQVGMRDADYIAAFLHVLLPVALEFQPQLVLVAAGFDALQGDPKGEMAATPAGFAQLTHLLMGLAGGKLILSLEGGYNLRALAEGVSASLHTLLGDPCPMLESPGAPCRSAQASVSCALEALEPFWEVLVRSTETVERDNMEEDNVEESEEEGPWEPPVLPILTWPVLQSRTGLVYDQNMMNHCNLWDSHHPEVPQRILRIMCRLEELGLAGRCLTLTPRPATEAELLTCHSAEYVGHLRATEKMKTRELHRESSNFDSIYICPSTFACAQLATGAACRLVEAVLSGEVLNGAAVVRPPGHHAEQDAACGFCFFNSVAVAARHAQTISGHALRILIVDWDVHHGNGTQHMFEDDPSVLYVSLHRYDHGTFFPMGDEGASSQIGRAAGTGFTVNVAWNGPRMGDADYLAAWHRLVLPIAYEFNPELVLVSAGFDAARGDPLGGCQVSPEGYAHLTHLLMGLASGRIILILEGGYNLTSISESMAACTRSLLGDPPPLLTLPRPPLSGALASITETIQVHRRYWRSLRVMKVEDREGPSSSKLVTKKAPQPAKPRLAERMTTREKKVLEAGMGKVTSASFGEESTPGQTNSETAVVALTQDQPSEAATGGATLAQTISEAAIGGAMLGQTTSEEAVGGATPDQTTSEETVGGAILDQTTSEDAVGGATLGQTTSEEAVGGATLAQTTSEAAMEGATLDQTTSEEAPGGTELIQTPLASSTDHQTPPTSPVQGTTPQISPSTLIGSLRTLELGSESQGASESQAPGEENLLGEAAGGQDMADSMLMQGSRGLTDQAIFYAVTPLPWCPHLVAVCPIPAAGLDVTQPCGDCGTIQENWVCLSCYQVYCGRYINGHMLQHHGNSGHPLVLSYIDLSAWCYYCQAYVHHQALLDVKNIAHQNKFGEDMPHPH
Kind of assay: Enzyme HDAC inhibition assay, HDAC6. As to conditions: read-out: IC50 HDAC 6; IC50 ± SEM; three experiments in duplicates.

The next assay deals with MCF-7. Kind of assay: MTT cell viability assay, MCF-7. The format is cell-based, human. How it is done: MTT assays were performed as previously described. […] After incubation time, medium was replaced by MTT (solution of 5 mg/mL 3-(4,5-dimethylthiazol-2-yl)-2,5-diphenyl-tetrazoliumbromidin in phosphate buffered saline, Serva, Heidelberg, Germany).
Where [4] appears, read: 120 h, IC50 ± SEM, read-out: IC50 MDA-MB-231, 120 h MTT assay.
Setting [5] is: 120 h, IC50 ± SEM, read-out: IC50 MCF-7, 120 h MTT assay.

T2 sequence (P56524 whole entry): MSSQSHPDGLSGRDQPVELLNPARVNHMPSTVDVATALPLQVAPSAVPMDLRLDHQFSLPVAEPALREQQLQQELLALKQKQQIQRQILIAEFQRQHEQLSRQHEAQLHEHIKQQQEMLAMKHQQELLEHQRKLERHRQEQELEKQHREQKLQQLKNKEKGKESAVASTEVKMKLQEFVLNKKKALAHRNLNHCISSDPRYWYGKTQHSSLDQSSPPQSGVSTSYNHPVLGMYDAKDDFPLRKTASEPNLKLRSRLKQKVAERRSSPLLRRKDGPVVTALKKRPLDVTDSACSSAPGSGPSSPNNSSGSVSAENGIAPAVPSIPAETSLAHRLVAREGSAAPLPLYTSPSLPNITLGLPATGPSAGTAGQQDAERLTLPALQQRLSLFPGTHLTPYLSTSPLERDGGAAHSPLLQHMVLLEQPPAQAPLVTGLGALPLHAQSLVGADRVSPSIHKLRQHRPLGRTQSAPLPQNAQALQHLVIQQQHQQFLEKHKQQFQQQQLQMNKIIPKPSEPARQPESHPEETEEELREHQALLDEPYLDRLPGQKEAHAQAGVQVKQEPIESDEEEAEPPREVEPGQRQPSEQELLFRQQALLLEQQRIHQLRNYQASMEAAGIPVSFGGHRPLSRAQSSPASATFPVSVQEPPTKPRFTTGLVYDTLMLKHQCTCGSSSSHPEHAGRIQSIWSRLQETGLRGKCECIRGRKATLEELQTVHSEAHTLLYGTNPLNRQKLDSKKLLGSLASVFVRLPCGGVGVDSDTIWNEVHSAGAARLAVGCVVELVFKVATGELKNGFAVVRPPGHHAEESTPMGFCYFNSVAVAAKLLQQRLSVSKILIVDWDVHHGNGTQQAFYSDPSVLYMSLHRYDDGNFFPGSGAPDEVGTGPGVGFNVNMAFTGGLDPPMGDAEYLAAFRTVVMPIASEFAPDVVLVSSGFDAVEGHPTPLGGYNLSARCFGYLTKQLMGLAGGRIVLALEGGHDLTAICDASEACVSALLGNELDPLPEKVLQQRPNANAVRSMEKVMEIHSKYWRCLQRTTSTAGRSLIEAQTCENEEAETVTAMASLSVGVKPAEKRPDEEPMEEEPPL
Excerpt for HDAC4: as §1
Excerpt for HDAC6: as §1

Usually IC50 stands for the midpoint of a concentration-inhibition curve. With `O=C(O)CCCC[C@@H]1CCSS1` [(R)-α-lipoic acid], the IC50 with MDA-MB-231 (72 h MTT, slightly below, read-out: IC50 MDA-MB-231) was about 1000 µM; with MDA-MB-231 (setting [4]) it was 225 ± 7.33 µM; in the assay with MDA-MB-231 (read-out: IC50 MDA-MB-231, 72 h MTT assay, 72 h, IC50 ± SEM) it was 873 ± 36 µM; at HDAC8 [1], 151 ± 33.4 µM; in the assay on HDAC8 [2], 127 µM; with HDAC2, about 500 µM. Besides, the IC50 in assay [3] was 969 ± 120 µM; on HDAC4, 168 ± 19.3 µM; on HDAC6 it was 14.2 ± 2.62 µM; with MCF-7 (72 h MTT, slightly above, read-out: IC50 MCF-7) it was about 1000 µM; in the assay on MCF-7 (setting [5]), 439 ± 16.3 µM; with MCF-7 (read-out: IC50 MCF-7, 72 h MTT assay, 72 h, IC50 ± SEM), 1170 ± 28.9 µM. The “increase in potency by prolongation of incubation time, MDA-MB-231” value with MDA-MB-231 (120 h versus 72 h MTT) is 3.9 fold. Besides, in the assay with MCF-7 (100 µM, 120 h MTT), the “inhibition of cell proliferation at 100 µM, MCF-7” value is “did not inhibit cell proliferation”. In addition, the “reduction of proliferation at 300 µM, MCF-7” value with MCF-7 (300 µM, 120 h MTT) is “significantly reduced proliferation”. For the same molecule, the “decrease of cell viability, MCF-7” value in the assay on MCF-7 (1 mM, 72 h MTT) is recorded as “approximately 35%”. Moreover, the “increase in potency by prolongation of incubation time, MCF-7” value in the assay with MCF-7 (120 h versus 72 h MTT) worked out at 2.7 fold.
Take `O=C(O)CCCC[C@H]1CCSS1` [(S)-α-lipoic acid]: the IC50 in the assay with MDA-MB-231 (setting [4]) was 243 ± 25.1 µM; at HDAC8 [1], 559 ± 71 µM; in the assay on HDAC8 [2] it was over 500 µM; in the assay on HDAC2, over 500 µM; in assay [3] it was 906 ± 87.7 µM; on HDAC4, 324 ± 39.9 µM. In addition, the IC50 at HDAC6 came out at 21.3 ± 1.23 µM; with MCF-7 (setting [5]), 429 ± 26.8 µM.
